Source: patent US20240246946A1, “MODULATORS OF TREX1” (Constellation Pharmaceuticals, Inc., priority 2021, published 2024)

Each molecule was assayed against T1, human TREX2 (residues M44-A279) (Homo sapiens, UniProt Q9BQ50) (assay: hTREX2 Biochemical Assay (fluorescence, dsDNA substrate degradation)). Conditions: biochemical selectivity for hTREX1 vs hTREX2.
T1 construct: human TREX2 (residues M44-A279, expressed in E. coli); made in house; host or cells: E. coli
T1 sequence (Q9BQ50 44-279 isoform Q9BQ50-1): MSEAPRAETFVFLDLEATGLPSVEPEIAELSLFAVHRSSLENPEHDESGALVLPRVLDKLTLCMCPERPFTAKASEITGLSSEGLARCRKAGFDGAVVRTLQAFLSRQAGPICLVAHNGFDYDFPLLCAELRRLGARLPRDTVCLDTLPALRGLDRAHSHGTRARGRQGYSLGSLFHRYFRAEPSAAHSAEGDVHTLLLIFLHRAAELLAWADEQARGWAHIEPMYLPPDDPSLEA
Procedure, shortened: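 N-His-Tev E. coli enzyme (50 pM) pre-incubated with compound 4 h at 25 °C, then 60 nM TEX615/quencher dsDNA added; 18 h at 25 °C, pH 7.4 Tris buffer with 5 mM MgCl2, 1.0% DMSO. EDTA-quenched; fluorescence 570 ex/615 em from liberated fluorophore, 10-point dose-response.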

SMILES | hTREX1 vs hTREX2 selectivity
Cc1ncc(C(c2ccccc2Cl)C(C)c2nc(C(=O)Nc3cnoc3)c(O)c(=O)n2C)nc1C (single isomer, unassigned) [Example 125 D1E2] | B (B = 25 to 50-fold selective for hTREX1)
Cc1nc(C)c(C(c2ccccc2C#N)C(C)c2nc(C(=O)Nc3cnoc3)c(O)c(=O)n2C)nc1C (single isomer, unassigned) [Example 122 D1E1] | C (C = >50 fold selective for hTREX1)
CC(c1nc(C(=O)Nc2cnoc2)c(O)c(=O)n1C)C(c1ccccc1C#N)c1cn(C)nc1F (single isomer, unassigned) [Example 91 D1E1] | B (B = 25 to 50-fold selective for hTREX1)
CC(c1nc(C(=O)Nc2cnoc2)c(O)c(=O)n1C)C(c1cnn(C)c1)c1ccccc1Cl (single isomer, unassigned) [Example 77 D1E1] | C (C = >50 fold selective for hTREX1)
CCn1cc(C(c2ccc(F)cc2C#N)C(C)c2nc(C(=O)Nc3cnoc3)c(O)c(=O)n2C)cn1 (single isomer, unassigned) [Example 16 D1E1] | C (C = >50 fold selective for hTREX1)
Cc1cc(C(c2cc(F)ccc2C#N)C(C)c2nc(C(=O)Nc3cnoc3)c(O)c(=O)n2C)n(C)n1 (single isomer, unassigned) [Example 111 D1E2] | B (B = 25 to 50-fold selective for hTREX1)
Cc1cnc(C(c2cc(F)ccc2C#N)C(C)c2nc(C(=O)Nc3cnoc3)c(O)c(=O)n2C)cn1 (single isomer, unassigned) [Example 115 D1E2] | B (B = 25 to 50-fold selective for hTREX1)
Cc1ncc(C(c2cc(F)ccc2C#N)C(C)c2nc(C(=O)Nc3cnoc3)c(O)c(=O)n2C)nc1C (single isomer, unassigned) [Example 124 D1E2] | B (B = 25 to 50-fold selective for hTREX1)
CC(c1nc(C(=O)Nc2cnoc2)c(O)c(=O)n1C)C(c1cnn(C(C)C)c1)c1ccccc1C#N (single isomer, unassigned) [Example 105 D1E2] | B (B = 25 to 50-fold selective for hTREX1)

The remaining lines, values ahead:

hTREX1 vs hTREX2 selectivity | SMILES
C (C = >50 fold selective for hTREX1) | CC(c1nc(C(=O)Nc2cnoc2)c(O)c(=O)n1C)C(c1cnn(C)c1)c1cc(F)ccc1C#N (single isomer, unassigned) [Example 14 D1E2]
C (C = >50 fold selective for hTREX1) | CCn1c(C(C)C(c2cnn(C)c2)c2ccccc2C#N)nc(C(=O)Nc2cnoc2)c(O)c1=O (single isomer, unassigned) [Example 149 D1E2]
C (C = >50 fold selective for hTREX1) | Cc1cncc(C(c2ccccc2C#N)C(C)c2nc(C(=O)Nc3cnoc3)c(O)c(=O)n2C)n1 (single isomer, unassigned) [Example 53 D1E2]
C (C = >50 fold selective for hTREX1) | CC(c1nc(C(=O)Nc2cnoc2)c(O)c(=O)n1C)C(c1cnn(CC2CC2)c1)c1ccccc1C#N (single isomer, unassigned) [Example 23 D1E2]
C (C = >50 fold selective for hTREX1) | C[C@H](c1nc(C(=O)Nc2cnoc2)c(O)c(=O)n1C)[C@@H](c1cc(F)ccc1C#N)c1cn(C)nc1C#N [Example 59 D1E2]
C (C = >50 fold selective for hTREX1) | Cc1ncc(C(c2ccccc2C#N)C(C)c2nc(C(=O)Nc3cnoc3)c(O)c(=O)n2C)nc1C (single isomer, unassigned) [Example 81 D1E2]
C (C = >50 fold selective for hTREX1) | Cc1nn(C)cc1C(c1cc(F)ccc1C#N)C(C)c1nc(C(=O)Nc2cnoc2)c(O)c(=O)n1C (single isomer, unassigned) [Example 57 D1E2]
C (C = >50 fold selective for hTREX1) | CC(c1nc(C(=O)Nc2cnoc2)c(O)c(=O)n1C)C(c1ccccc1C#N)c1cn(C)nc1C#N (single isomer, unassigned) [Example 10 D1E1]
C (C = >50 fold selective for hTREX1) | CC(c1nc(C(=O)Nc2cnoc2)c(O)c(=O)n1C)C(c1cnn(C)c1)c1ccccc1C#N (single isomer, unassigned) [Example 2 D1E1]
C (C = >50 fold selective for hTREX1) | CCn1cc(C(c2ccccc2C#N)C(C)c2nc(C(=O)Nc3cnoc3)c(O)c(=O)n2C)cn1 (single isomer, unassigned) [Example 13 D1E1]
